In PubChem BioAssay AID504672 (Sanford-Burnham Center for Chemical Genomics, 2011):
The source made the active and inactive calls. Cut-off read from the data, not from the text of the source: active = IC50 below about 71 µM; inactive = the rest.

System: S. cerevisiae tim10 strain, luminescence counterscreen
Test: TIM10 strain luminescence inhibitors – S. cerevisiae, uHTS hits, counter-screen for tim23-1 inhibitor project, dose response (AID 504672);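 note: yeast grew roughly 22 hours at 25 °C before the luminescence read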

CC(C)(C)c1ccc(Oc2ccc(N)cc2)cc1
IC50: 13.7 µM

O=C1c2ccccc2C(=O)N1c1nc(-c2cccs2)cs1
IC50: 6.52 µM

CC(C)c1nc(NCCO)c(C#N)c2c1CCCC2
IC50: 18.5 µM

Cc1csc2nc(O)c(C(=O)NCCC3=CCCCC3)c(=O)n12
IC50: 3.43 µM

COc1ccc(N2CCC(CNC(=S)Nc3ccc(C)cc3C)C2)cc1 (centres undefined)
IC50: 18.1 µM

O=c1cc(C(Cl)(Cl)Cl)oc2c1ccc1ccccc12
IC50: 63.8 µM

COC(=O)N/N=C/c1ccc(-c2cc(Cl)cc(Cl)c2)o1
IC50: 18 µM

O=C(Nc1ccc2nc(-c3ccc(Br)o3)[nH]c2c1)c1cccs1
IC50: 51 µM

CCc1ccc(NC(=O)/C(C#N)=C/c2ccncc2)cc1
IC50: 12.6 µM

COc1cc(/C=N/NC(=O)c2ccc(N)cc2)ccc1OC(=O)c1cccc(C)c1
IC50: 7.44 µM

CC1(C)CC(n2c(NCCO)nc3c(c2=O)C2(CCCC2)Cc2ccccc2-3)CCO1 (centres undefined)
IC50: 12.4 µM

CC1(C)OC(=O)C(=Cc2ccc[nH]2)C(=O)O1
IC50: 7.41 µM

O=C(N/N=C/c1cc(Br)cc(Br)c1O)c1cccc(N2CCCC2=O)c1
IC50: 4.11 µM

Cc1ccccc1C(=O)Oc1cccc2c(O)cccc12
IC50: 13.8 µM

O=[N+]([O-])c1cc(O)c2ncccc2c1
IC50: 7.75 µM

O=Cc1cn(CCOc2ccccc2F)c2ccccc12
IC50: 22.3 µM

Cc1ccccc1OCCCSc1nc2ccccc2[nH]1
IC50: 6.45 µM

Cc1ccc(NC(=O)c2ccc3c(c2)OCCO3)cc1C
IC50: 4.16 µM

CCc1ccc2oc(-c3cc(N)ccc3Cl)nc2c1
IC50: 17 µM

CCC(C)c1ccc(NC(=O)C2CC3CCC2C3)cc1 (centres undefined)
IC50: 19.4 µM

C(=C\c1ccccc1)/C=N/Nc1nc2ccccc2[nH]1
IC50: 38.7 µM

NNC(=O)c1nc(-c2ccccc2)cc(-c2ccccc2)n1
IC50: 12.5 µM

CC(C)n1ncc2c(C(=O)NCC(=O)Nc3ccccc3Br)cc(C3CC3)nc21
IC50: 27.8 µM

N=c1c2c(-c3ccccc3)c(-c3ccccc3)n(Cc3ccco3)c2ncn1Cc1ccco1
IC50: 14.6 µM

Cc1ccc(NC(=O)c2nc(S(=O)(=O)Cc3ccccc3C)ncc2Cl)cc1C
IC50: 5.94 µM

O=C(Nc1cccc(Br)c1)C1CCCC1
IC50: 14.1 µM

COc1cccc(Nc2nc(-c3ccccc3)nc3ccccc23)c1
IC50: 7.48 µM

Cc1ccc(-c2nnc(N3CCC(C)CC3)c3ccccc23)cc1
IC50: 11.9 µM

CC1(C)CC(=O)C=C(c2cccc(Cl)c2O)C1
IC50: 13.1 µM

Cc1nc2ccccc2n1/N=C/c1ccc([N+](=O)[O-])s1
IC50: 2.14 µM

COc1ccc(NC(=O)Nc2nc3c(s2)CCCC3)cc1
IC50: 14.5 µM

Cc1nc2scc(C)n2c(=O)c1S(=O)(=O)Nc1ccc(N2CCOCC2)cc1
IC50: > 100 µM (inactive)

O=C(Nc1ccc2nc(-c3ccc(Br)o3)[nH]c2c1)c1ccco1
IC50: 6.75 µM

NC(=S)N/N=C/c1coc2ccc(Br)cc2c1=O
IC50: 5.78 µM

O=C(Oc1cccc2c(O)cccc12)c1ccccc1
IC50: 4.84 µM

O=C1/C(=C/c2cccs2)COc2ccccc21
IC50: 7.66 µM

CCSc1ncc(/C=N/Nc2ccc(Cl)cc2)n1C
IC50: 10.9 µM

CC[C@@]1(c2ccccc2OC)ON(c2ccccc2C(F)(F)F)C1=O
IC50: 4.27 µM

O=C(Nc1ccc(Nc2ccccc2)cc1)c1ccc(Cl)c([N+](=O)[O-])c1
IC50: 10.8 µM

c1ccc(-c2ncc(-c3ccn[nH]3)s2)cc1
IC50: 3.88 µM

COc1cccc(NC(=O)c2ccccc2)c1
IC50: 3.42 µM

CCOC(=O)c1cccnc1SCc1cc(=O)n2ccccc2n1
IC50: > 100 µM (inactive)

CCN(CC)c1ccc(/C=N/NC(=O)c2ccc3c(c2)OCCO3)cc1
IC50: 11.5 µM

COC(=O)c1ccc(C(=O)OC)c(NC(=O)CSc2cccc[n+]2[O-])c1
IC50: 10.6 µM

COc1ccc(C(C[N+](=O)[O-])c2c(-c3ccccc3)cc3ccccn23)cc1OC (centres undefined)
IC50: 21 µM

O=C(Nc1ccc(-c2cn3ccccc3n2)cc1)c1cccs1
IC50: > 100 µM (inactive)

COc1ccc(S(=O)(=O)CC(=O)c2cc3cccc(C)c3oc2=O)cc1
IC50: 15.4 µM

COc1ccc2c(c1)sc1nc(-c3ccccc3)cn12
IC50: 20.5 µM

Cc1ccc(-c2nnc(N3CCN(c4ccccn4)CC3)c3ccccc23)cc1
IC50: 13.1 µM

O=C(Nc1ccc(-c2cn3c(n2)SCC3)cc1)c1ccco1
IC50: 38.3 µM

C/C(=N\Nc1ccc([N+](=O)[O-])cc1)c1ccc(O)cc1
IC50: 2.32 µM

O=Cc1cccnc1SCc1ccccc1
IC50: 12.1 µM

COCCn1c(C)cc(C(=O)COC(=O)c2ccc([N+](=O)[O-])o2)c1C
IC50: 8.28 µM

c1ccc(-c2cc3ccccc3cn2)cc1
IC50: 7.8 µM

O=C(c1cc(-c2ccc(O)cc2)on1)N1CCc2ccccc2C1
IC50: 17.1 µM

N=c1c2c(-c3ccccc3)c(-c3ccccc3)n(Cc3ccco3)c2ncn1Cc1ccccc1
IC50: 13.6 µM

Cc1ccc2occ(/C=N/NC(=O)c3ccccc3Br)c(=O)c2c1
IC50: 17.3 µM

N#C/C(=C\c1ccc(O)cc1)c1nc2ccccc2o1
IC50: 17.6 µM

O=C(Nc1ccc(Oc2cccc3ccccc23)cc1)c1ccco1
IC50: 8.83 µM

CC(C)OC(=O)c1cccnc1SCc1cc(=O)n2ccccc2n1
IC50: 42.4 µM

CC1(C)c2cc(Cl)ccc2-n2c1cc(O)c(-c1ccccc1)c2=O
IC50: 11.5 µM

COC(=O)c1ccc(NC(=O)c2nc(S(=O)(=O)Cc3cccc(C)c3)ncc2Cl)cc1
IC50: 2.01 µM

CSc1nnc(C(C)(C)C)c(=O)n1/N=C/c1ccccc1
IC50: 56.6 µM

Cc1cc(=O)oc2c1c(C(F)(F)F)nn2-c1ccccc1
IC50: 6.41 µM

Cc1nc(-c2ccc(NC(=O)c3ccccc3)cc2)cs1
IC50: 8.18 µM

COCCNC(=O)/C(C#N)=C/c1ccc(OCc2ccc(F)cc2)cc1
IC50: 11.3 µM

c1cnc2c(c1)ccc1cccnc12
IC50: 12.3 µM

O=C(Nc1ccccc1N(C(=O)c1ccco1)S(=O)(=O)c1cccs1)c1ccco1
IC50: 19.4 µM

O=[N+]([O-])c1ccc(N/N=C/c2cccc(O)c2)cc1
IC50: 6.08 µM

O=C(NC(=S)NC(=O)c1ccccc1F)c1ccccc1F
IC50: 8.39 µM

CO/C(N)=C(\C#N)N=Cc1ccccc1Cl
IC50: 77.2 µM

CCN(CC)c1ccc(C(=O)Nc2cccc(F)c2)cc1
IC50: 5.64 µM

CNC(=S)N/N=C/c1cc(Br)cc(Br)c1O
IC50: 8.2 µM

O=C(N/N=C/c1coc2ccc(Cl)cc2c1=O)c1cc(O)cc(O)c1
IC50: 44.8 µM

Nc1ccc(/C=C/C(=O)c2cccs2)cc1
IC50: 3.17 µM

COc1cc(NC(=O)c2cccs2)ccc1NC(=O)c1ccccc1Cl
IC50: 16.2 µM

CC1=CC(C)(C)N(C(=O)c2ccc(F)cc2)c2cc3c(cc21)OCO3
IC50: 3.84 µM

Cc1ccc(SCC(=O)OCn2nnc3ccccc3c2=O)cc1C
IC50: 15.6 µM

O=C1Nc2ccccc2/C1=C/c1ccccc1Cl
IC50: 8.06 µM

Cc1ccc(CS(=O)(=O)c2ncc(Cl)c(C(=O)Nc3ccc(OC(F)F)cc3)n2)cc1
IC50: 5.88 µM

C[C@@]12C(=O)Nc3ccc(Br)cc3C(=O)N1[C@H]1c3ccccc3OC[C@@H]1[C@@H]2c1ccccc1
IC50: 3.81 µM

CCOC(=O)c1c(C)oc2c(F)c(F)c(F)c(F)c2c1=O
IC50: 26.8 µM

Cc1ccc2nc(NC(=O)Cn3nc(C)c([N+](=O)[O-])c3C)sc2c1
IC50: 18.2 µM

O=C1c2ccccc2-c2n[nH]c3cccc1c23
IC50: 20.2 µM

COc1ccc(C(=O)COC(=O)c2cncc(Br)c2)cc1
IC50: 15.5 µM

Cc1ccc(S(=O)(=O)n2ccc(OC(=O)c3cccs3)n2)cc1
IC50: 8.32 µM

O=C(Nc1nccs1)c1ccc(Cl)s1
IC50: 13.3 µM

COc1ccc(NCc2ccc([N+](=O)[O-])s2)cc1
IC50: 6.42 µM

Cc1ccc2nc(N3CCN(C=O)CC3)nc(-c3ccccc3)c2c1
IC50: 9.88 µM

Cc1cc(Nc2ccccc2)nn1C(=O)c1ccccc1
IC50: 11.3 µM

O=C(Nc1ccc2c(c1)OCCO2)c1cccc(Cl)c1
IC50: 21.5 µM

Clc1nssc1=Nc1nncs1
IC50: 2.6 µM

CN1CCc2nc3sc(C(=O)C45CC6CC(CC(C6)C4)C5)c(N)c3cc2C1
IC50: 86.3 µM

Oc1ccc(/C=N/Nc2cccc(Cl)n2)c(O)c1
IC50: 14.9 µM

Cc1[nH][nH]c(=O)c1C(c1ccc(-c2ccc(F)cc2)o1)c1c(C)[nH][nH]c1=O
IC50: 16.3 µM

O=C(NCc1ccc2c(c1)OCO2)c1c(O)nc2sccn2c1=O
IC50: 1.63 µM

O=C1NN=C(c2ccc(Br)cc2)CC1c1ccc(Cl)cc1 (centres undefined)
IC50: 23.2 µM

COn1c(=O)c(-c2cccs2)[n+]([O-])c2ccccc21
IC50: 6.58 µM

O=c1c(O)c(-c2ccccc2)oc2cc(O)cc(O)c12
IC50: 35.5 µM

C=C1CCc2c([nH]c3ccc(OCC(C)C)cc23)C1=O
IC50: 24.3 µM

CC(C)Cn1cnc2c(c(-c3ccccc3)c(-c3ccccc3)n2Cc2ccco2)c1=N
IC50: 42.3 µM

COC(=O)c1c(-c2ccc(S(C)(=O)=O)cc2)sc2ccc(OC)cc12
IC50: 11.4 µM

CCn1c(N2CCN(S(=O)(=O)c3ccc(OC)cc3)CC2)nc2ccccc21
IC50: 58 µM

CCOC(=O)c1sc(=NC(=O)c2ccco2)n(C)c1C
IC50: 46.5 µM

Cc1nc2ccc(C(C(F)(F)F)(C(F)(F)F)C(F)(F)F)cc2[nH]1
IC50: 19.9 µM

Nc1ccc2nc(SCc3ccccc3F)sc2c1
IC50: 20.6 µM

O=C(CSc1cccc[n+]1[O-])Nc1ccccc1Oc1ccccc1
IC50: 17.7 µM

Cc1ccc(Nc2cc(C)c3ccc(O)cc3n2)cc1C
IC50: 27.2 µM

c1ccc(N=Nc2cn[nH]c2-c2ccco2)cc1
IC50: 20.8 µM

OCCOCCNc1ncnc2c1c(-c1ccccc1)cn2-c1ccccc1
IC50: 11.7 µM

O=C(Nc1ncc([N+](=O)[O-])s1)c1ccc2c(c1)OCO2
IC50: 15.8 µM

Cc1ccc2occ(C(=O)c3ccco3)c(=O)c2c1
IC50: 9.21 µM

COCCNC(=O)/C(C#N)=C/c1ccc(OCc2ccccc2)cc1
IC50: 16.6 µM

Cc1ccc2nc(-c3ccc(N)cc3)sc2c1
IC50: 17.4 µM

Cn1c(C(=O)Nc2ccc3c(c2)OCCO3)cc2sccc21
IC50: 7.59 µM

c1ccc2[nH]c(-c3ccc4c(c3)OCO4)nc2c1
IC50: 12.4 µM

c1ccc(-c2nc(NCc3cccs3)c3ccccc3n2)cc1
IC50: 14.3 µM

O=C(Nc1ccc(OC(F)(F)F)cc1)N1CCN(c2ccnc3cc(Cl)ccc23)CC1
IC50: 10.2 µM

CC1c2[nH]c3ccccc3c2CCN1C(=O)Nc1ccccc1 (centres undefined)
IC50: 14 µM

Cn1c(/C(C#N)=C/c2ccncc2)nc2ccccc21
IC50: 34.3 µM

Nc1cc([N+](=O)[O-])cc2oc(-c3ccccc3)cc12
IC50: 23.9 µM

CC(C)Oc1cc(O)c2c(=O)c(-c3ccc(O)cc3)coc2c1
IC50: 10.1 µM

O=C1/C(=C/c2ccncc2)SC(=S)N1C1CCCCC1
IC50: 27.4 µM

Cc1ccc(-c2nn(-c3ccccc3)cc2NC(=O)CCl)cc1
IC50: 26.7 µM
